Patent publication US12099051B2 (priority 2022, dated 2024)
≈ marks a conversion by molar mass, not a printed value. Where “and” joins values, the source holds several entries; their conditions need not be identical. Equal entries are not always repeated.

Experiments:
[1] = tested on: Caenorhabditis elegans (N2 wild-type); details: in vivo
[2] = tested on: Caenorhabditis elegans mutant strain Daf-2 (e1370); details: in vivo
[3] = tested on: Caenorhabditis elegans (N2 wild-type); assay: whole plant or invertebrate; format: in vivo
[4] = tested on: Caenorhabditis elegans mutant strain Daf-16 (mu86); details: in vivo
Caenorhabditis elegans = details: in vivo
[5] = tested on: Caenorhabditis elegans mutant strain Daf-2 (e1370); details: in vivo; remark: listed apart in the source
[6] = tested on: Caenorhabditis elegans mutant strain Daf-16 (mu86); details: in vivo; remark: listed apart in the source

With `O=C1C=C2C(=CCOC2O)O1` (stereo not shown) [PAT, Patulin] the “concentration at which nematode's spawning rate is significantly confined (P<0.001)” value [1] was 5 µg/mL, the spawning rate [1] was 49.41% and the “effect of Daf-2 gene silencing on developmental toxicity” value [2] was “does not slow down the developmental toxicity”. The EC50 ([3]; Caenorhabditis elegans, 24 h) was 44.2 µg/mL (≈ 287 µM), the body length ratio ([3]; in vivo) was 64.45% and 55.55% and the “concentration at which nematode's body length is significantly confined (P<0.001)” value ([3]; in vivo) was 25 µg/mL. For the same compound, the “body length ratio of Daf-16 mutant strain compared with N2 wild type” value [4] was “higher body length ratio than the N2 wild type”, the “relative fluorescence intensity ratio (ROS)” value (Caenorhabditis elegans) was 136.92% and 149.43% and the “spawning rate of Daf-2 mutant strain compared with N2” value [5] was “no significant difference from N2”. For the same compound, the “spawning rate of Daf-16 mutant strain compared with N2 wild-type” value [6] was “higher spawning rate than the N2 wild-type”.
